Assay results reported in patent US20230190935A1, “Blood pathogen inactivation method” (Institute of Blood Transfusion CAMS, priority 2021, published 2023).

Test system: S. aureus
Experiment: Pathogen inactivation in plasma spiked with S. aureus: combinations of low-frequency sonication, UV light and riboflavin
Assay type: cell-based
Settings: for growth of S. aureus after treatment: n = 6

Cc1cc2nc3c(=O)[nH]c(=O)nc-3n(C[C@H](O)[C@H](O)[C@H](O)CO)c2cc1C [riboflavin]
growth of S. aureus after treatment (Riboflavin-containing sample (50 µmol/L, plasma) + low-frequency sonication 30 KHz, no illumination, table row 0.27 J/mL, 10 min): 5.84 ± 0.18 log | growth of S. aureus after treatment (Riboflavin-containing sample (50 µmol/L, plasma) + low-frequency sonication 30 KHz, no illumination, table row 0.54 J/mL, 20 min): 5.72 ± 0.30 log | growth of S. aureus after treatment (Riboflavin-containing sample (50 µmol/L, plasma) + low-frequency sonication 30 KHz, no illumination, table row 0.81 J/mL, 30 min): 5.67 ± 0.32 log | growth of S. aureus after treatment (Sonication (30 KHz) + UV light (311 ± 50 nm) + riboflavin 50 µmol/L in plasma, light energy 0.27 J/mL, 10 min): 4.48 ± 0.46 log | growth of S. aureus after treatment (Sonication (30 KHz) + UV light (311 ± 50 nm) + riboflavin 50 µmol/L in plasma, light energy 0.54 J/mL, 20 min): 2.04 ± 0.71 log | growth of S. aureus after treatment (Sonication (30 KHz) + UV light (311 ± 50 nm) + riboflavin 50 µmol/L in plasma, light energy 0.81 J/mL, 30 min): 1.28 ± 0.66 log | growth of S. aureus after treatment (UV light (311 ± 50 nm) + riboflavin 50 µmol/L in plasma, no sonication, light energy 0.27 J/mL, 10 min): 5.41 ± 0.029 log | growth of S. aureus after treatment (UV light (311 ± 50 nm) + riboflavin 50 µmol/L in plasma, no sonication, light energy 0.54 J/mL, 20 min): 5.66 ± 0.09 log | growth of S. aureus after treatment (UV light (311 ± 50 nm) + riboflavin 50 µmol/L in plasma, no sonication, light energy 0.81 J/mL, 30 min): 5.23 ± 0.16 log | pathogen inactivation effect (in words) (UV light + riboflavin group, 0.81 J/mL): no inactivation effect | effect of combining low-frequency sonication with riboflavin photochemical method (in words) (low-frequency sonication + UV light + riboflavin): synergistic effect | pathogen inactivation effect (in words) (sonication + UV light + riboflavin group): strong pathogen inactivation effect | pathogen inactivation effect (in words) (sonication + riboflavin group, 0.81 J/mL): no inactivation effect
